The source of these data is patent publication US4946852A, “4(R)-substituted 6(S)-phenoxymethyl-, 6(S)-β-phenylethyl- and 6(S)-β-styryl-tetrahydropyran-2-ones, a highly stereoselective process for their preparation, pharmaceutical products based on these compounds, and their use” (Hoechst Aktiengesellschaft, priority 1986, dated 1990).

This test has as its target T1, HMG-CoA reductase (Rattus norvegicus, UniProt P51639).
T1 sequence (P51639 1-887): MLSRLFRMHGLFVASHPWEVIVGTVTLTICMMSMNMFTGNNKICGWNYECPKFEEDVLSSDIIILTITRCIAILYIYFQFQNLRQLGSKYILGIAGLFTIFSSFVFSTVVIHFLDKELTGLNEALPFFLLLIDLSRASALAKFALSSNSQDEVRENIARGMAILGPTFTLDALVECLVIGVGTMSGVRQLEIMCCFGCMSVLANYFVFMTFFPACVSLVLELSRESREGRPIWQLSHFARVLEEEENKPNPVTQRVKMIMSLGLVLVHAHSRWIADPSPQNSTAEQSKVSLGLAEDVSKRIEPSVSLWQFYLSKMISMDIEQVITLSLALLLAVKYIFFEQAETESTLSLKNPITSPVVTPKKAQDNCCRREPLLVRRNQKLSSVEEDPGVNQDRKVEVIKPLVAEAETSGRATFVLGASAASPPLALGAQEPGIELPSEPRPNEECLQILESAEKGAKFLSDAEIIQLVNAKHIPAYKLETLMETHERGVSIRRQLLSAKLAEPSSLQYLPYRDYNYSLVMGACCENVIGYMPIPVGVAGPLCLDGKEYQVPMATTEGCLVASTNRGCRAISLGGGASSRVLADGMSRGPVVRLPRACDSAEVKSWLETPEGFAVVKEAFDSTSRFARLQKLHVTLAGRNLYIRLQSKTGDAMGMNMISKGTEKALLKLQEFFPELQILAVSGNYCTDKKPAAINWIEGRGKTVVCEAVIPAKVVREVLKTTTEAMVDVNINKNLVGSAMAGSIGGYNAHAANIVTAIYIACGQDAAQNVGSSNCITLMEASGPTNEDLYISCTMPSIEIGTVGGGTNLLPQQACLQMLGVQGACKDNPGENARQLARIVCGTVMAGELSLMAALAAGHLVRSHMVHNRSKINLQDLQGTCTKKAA
The test is described as follows: Inhibition of HMG-CoA reductase activity on solubilized enzyme preparations from rat liver microsomes. The format is biochemical. The conditions noted are these: solubilized rat-liver microsomal enzyme; for IC50: molar concentration required for 50% inhibition, (S,R) 14C-HMG-CoA substrate, mean of 3 parallel samples. For orientation: Liver microsomes are vesicles of endoplasmic reticulum, rich in cytochrome P450 enzymes.

SMILES strings stand for the structures.

For orientation: inhibition means the drop in the measured response relative to a control, in per cent. `Cc1cc(C)c(OC[C@@H]2C[C@@H](SC[C@H](N)C(=O)O)CC(=O)O2)c(CCCOc2ccc(F)cc2)c1` [Ve, 6S-({[2-(4-Fluorophenoxy-3-propyl)]-4,6-dimethylphenoxy}methyl)-4R-[(R)-2-amino-3-mercaptyl-propionic acid]-3,4,5,6-tetrahydro-2H-pyran-2-one]: the inhibition by setting is: (at 10^-6) 37%; (at 10^-7) 24%.
For orientation: IC50 means the point on the concentration scale where inhibition reaches its midpoint. Low values mean greater potency in that assay, high ones weaker potency in that assay. For the compound `Cc1cc(C)c(OC[C@@H]2C[C@@H](O)CC(=O)O2)c(CCCOc2ccc(F)cc2)c1` [A, 6(S)-{4,6-dimethyl-2-[3-(4-fluorophenoxy)propyl]phenoxymethyl}-3,4,5,6-tetrahydro-4(R)-hydroxy-2H-pyran-2-one, reference compound], the half-inhibitory concentration (IC50) was 1000 nM.
Same read-out and setting: under `CC(=O)S[C@H]1CC(=O)O[C@H](COc2c(C)cc(C)cc2CCCOc2ccc(F)cc2)C1` [Va, 6S-({[2-(4-Fluorophenoxy-3-propyl)]-4,6-dimethylphenoxy}methyl)-4R-acetylmercapto-3,4,5,6-tetrahydro-2H-pyran-2-one] stands 300 nM; under `Cc1cc(C)c(OC[C@@H]2C[C@@H](SCc3ccccc3)CC(=O)O2)c(CCCOc2ccc(F)cc2)c1` [Vc, 6S-({[2-(4-Fluorophenoxy-3-propyl)]-4,6-dimethylphenoxy}methyl)-4R-benzylmercapto-3,4,5,6-tetrahydro-2H-pyran-2-one], approximately 100000 nM; under `Cc1cc(C)c(OC[C@@H](O)C[C@@H](O)CC(=O)O)c(CCCOc2ccc(F)cc2)c1` [reference compound], 200 nM.
Still for that read-out and setting: in the case of `Cc1cc(C)c(OC[C@@H]2C[C@@H](SCCO)CC(=O)O2)c(CCCOc2ccc(F)cc2)c1` [Vd, 6S-({[2-(4-Fluorophenoxy-3-propyl)]-4,6-dimethylphenoxy}methyl)-4R-β-hydroxyethylmercapto-3,4,5,6-tetrahydro-2H-pyran-2-one] it was 1000 nM.
